“Also recorded” adds a separate entry of the source.
System: vaginolysin (vly)
Format: cell-based, Gardnerella vaginalis

C[C@@H](O)[C@H](O)[C@H](O)[C@@H](O)C=O [D-fucose, 6-deoxy-D-galactose]
effect on vly expression, in words: expressed less vaginolysin; also recorded: significantly reduce vly expression

Source: patent US20230398178A1, “METHODS AND COMPOSITIONS FOR TREATING OR PREVENTING A VAGINAL INFECTION OF GARDNERELLA VAGINALIS” (Massachusetts Institute of Technology, priority 2022, published 2023)
